Converted amounts (≈) assume the structure as drawn.
How the values were obtained:
Fasciola hepatica [1] = assay: Antiparasitic activity against 10 week old Fasciola hepatica infected in sheep assessed as reduction in worm burden at 15 mg/kg, po; format: functional
[2] = Aqueous stability of the compound assessed as time duration showing >95% compound stability at pH 7 and room temperature by UV-HPLC; format: physicochemical; settings: buffer
Fasciola hepatica [3] = assay: Antiparasitic activity against Fasciola hepatica assessed as mortality at 50 mg/L after 72 hrs relative to untreated control; format: functional
Fasciola hepatica [4] = assay: Antiparasitic activity against Fasciola hepatica infected in sheep assessed as reduction of eggs at 12 mg/kg, po; format: functional
Fasciola hepatica [5] = assay: Antiparasitic activity against Fasciola hepatica assessed as mortality at 10 mg/L after 72 hrs relative to untreated control; format: functional
Fasciola hepatica [6] = assay: Antiparasitic activity against Fasciola hepatica assessed as mortality at 10 mg/L after 24 hrs relative to untreated control; format: functional
Fasciola hepatica [7] = assay: Antiparasitic activity against Fasciola hepatica infected in sheep assessed as reduction of eggs at 4 mg/kg, sc; format: functional; settings: route subcutaneous
Fasciola hepatica [8] = assay: Antiparasitic activity against Fasciola hepatica assessed as mortality at 50 mg/L after 48 hrs relative to untreated control; format: functional
Fasciola hepatica [9] = assay: Antiparasitic activity against Fasciola hepatica infected in sheep assessed as reduction of eggs at 4 mg/kg, intramuscular; format: functional
Fasciola hepatica [10] = assay: Antiparasitic activity against Fasciola hepatica assessed as mortality at 50 mg/L after 24 hrs relative to untreated control; format: functional
Fasciola hepatica [11] = assay: Antiparasitic activity against Fasciola hepatica assessed as mortality at 10 mg/L after 48 hrs relative to untreated control; format: functional
Fasciola hepatica [12] = assay: Antiparasitic activity against Fasciola hepatica infected in sheep assessed as fluke reduction at 4 mg/kg, sc; format: functional; settings: route subcutaneous
Fasciola hepatica [13] = assay: Antiparasitic activity against Fasciola hepatica infected in sheep assessed as fluke reduction at 12 mg/kg, po; format: functional
Fasciola hepatica [14] = assay: Antiparasitic activity against Fasciola hepatica infected in sheep assessed as fluke reduction at 4 mg/kg, intramuscular; format: functional
[15] = Aqueous solubility of the compound at pH 7 and 25 degC; format: physicochemical

SMILES | Efficacy (Fasciola hepatica [1]) [%] | Stability [2] [h] | Efficacy (Fasciola hepatica [3]) [%] | Efficacy (Fasciola hepatica [4]) [%] | Efficacy (Fasciola hepatica [5]) [%] | Efficacy (Fasciola hepatica [6]) [%] | Efficacy (Fasciola hepatica [7]) [%] | Efficacy (Fasciola hepatica [8]) [%] | Efficacy (Fasciola hepatica [9]) [%] | Efficacy (Fasciola hepatica [10]) [%] | Efficacy (Fasciola hepatica [11]) [%] | Efficacy (Fasciola hepatica [12]) [%] | Efficacy (Fasciola hepatica [13]) [%] | Efficacy (Fasciola hepatica [14]) [%] | solubility [15] [µg/mL]
CSc1nc2cc(Oc3cccc4ccccc34)c(Cl)cc2[nH]1 | 86.9 | > 26 |  |  |  |  |  |  |  |  |  |  |  |  | 
CSc1nc2cc(Oc3cccc4ccccc34)c(Cl)cc2n1COP(=O)([O-])[O-].[Na+].[Na+] |  | > 26 | 100 | 95.1 | 100 | 95.8 | 65.8 | 100 | 44.9 | 100 | 95.8 | 61.4 | 83.3 | 87.8 | 
CSc1nc2cc(Cl)c(Oc3cccc(Cl)c3Cl)cc2[nH]1 [TRICLABENDAZOLE] |  | > 24 | 100 |  | 100 | 100 |  | 100 |  | 100 | 100 |  |  |  | 0.2 (≈ 0.556 µM)

From ChEMBL document CHEMBL3352783, “A highly water soluble benzimidazole derivative useful for the treatment of fasciolosis” (Bioorg Med Chem Lett, 2014)
